In PubChem BioAssay (NCI):
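Briefly, cells in 96-well plates were exposed to five compound concentrations for 48 h, and endpoints were estimated by linear interpolation. TGI: total growth inhibition.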

Columns and labels:
Assay in all cases: DTP human tumour cell line panel, 48 h
XF 498 CNS = system: XF 498 CNS
HOP-62 NSCLC = system: HOP-62 NSCLC
RXF 393 renal = system: RXF 393 renal
LOX IMVI melanoma = system: LOX IMVI melanoma
HOP-92 NSCLC = system: HOP-92 NSCLC
SF-295 CNS = system: SF-295 CNS
OVCAR-8 ovarian = system: OVCAR-8 ovarian
SNB-19 CNS = system: SNB-19 CNS
M19-MEL melanoma = system: M19-MEL melanoma
MOLT-4 leukemia = system: MOLT-4 leukemia
EKVX NSCLC = system: EKVX NSCLC
M14 melanoma = system: M14 melanoma
A549 NSCLC = system: A549 NSCLC
HOP-18 NSCLC = system: HOP-18 NSCLC
RXF-631 renal = system: RXF-631 renal
OVCAR-4 ovarian = system: OVCAR-4 ovarian
SNB-75 CNS = system: SNB-75 CNS
UO-31 renal = system: UO-31 renal
HL-60(TB) leukemia = system: HL-60(TB) leukemia
SK-MEL-28 melanoma = system: SK-MEL-28 melanoma
DMS 273 small cell lung = system: DMS 273 small cell lung
NCI-H460 lung = system: NCI-H460 lung
OVCAR-3 ovarian = system: OVCAR-3 ovarian
SNB-78 CNS = system: SNB-78 CNS
786-0 renal = system: 786-0 renal
UACC-257 melanoma = system: UACC-257 melanoma
CCRF-CEM leukemia = system: CCRF-CEM leukemia
COLO 205 colon = system: COLO 205 colon
NCI-H23 lung = system: NCI-H23 lung
HT29 colon = system: HT29 colon
SK-MEL-5 melanoma = system: SK-MEL-5 melanoma
CAKI-1 renal = system: CAKI-1 renal
OVCAR-5 ovarian = system: OVCAR-5 ovarian
SK-OV-3 ovarian = system: SK-OV-3 ovarian
ACHN renal = system: ACHN renal
K-562 leukemia = system: K-562 leukemia
TK-10 renal = system: TK-10 renal
SW-620 colon = system: SW-620 colon
DLD-1 colon = system: DLD-1 colon
HCT-116 colon = system: HCT-116 colon
KM20L2 colon = system: KM20L2 colon
U251 CNS = system: U251 CNS
UACC-62 melanoma = system: UACC-62 melanoma
IGROV1 ovarian = system: IGROV1 ovarian
MALME-3M melanoma = system: MALME-3M melanoma
SN12C renal = system: SN12C renal
RPMI-8226 leukemia = system: RPMI-8226 leukemia
HCT-15 colon = system: HCT-15 colon
SF-539 CNS = system: SF-539 CNS
LXFL 529 NSCLC = system: LXFL 529 NSCLC
SR leukemia = system: SR leukemia
DMS 114 small cell lung = system: DMS 114 small cell lung
HCC-2998 colon = system: HCC-2998 colon
A498 renal = system: A498 renal
KM12 colon = system: KM12 colon
SF-268 CNS = system: SF-268 CNS
SK-MEL-2 melanoma = system: SK-MEL-2 melanoma

Q: For `COc1ccc(C2=C(Cl)c3cc(OC)c(OC)cc3C2Cl)cc1OC` (stereo not given), which TGI (XF 498 CNS) is on record?
A: Its TGI is 29.4 µM.

Q: And the TGI (HOP-62 NSCLC)?
A: The TGI was 36.6 µM.

Q: And the TGI (RXF 393 renal)?
A: The TGI was 35.3 µM.

Q: And the TGI (LOX IMVI melanoma)?
A: The TGI was 31.1 µM.

Q: What about the TGI (HOP-92 NSCLC) of the same compound?
A: The TGI was 46.1 µM.

Q: What about the TGI (SF-295 CNS) of the same compound?
A: Its TGI is 33.8 µM.

Q: What about the TGI (OVCAR-8 ovarian) of the same compound?
A: The TGI was 39 µM.

Q: And the TGI (SNB-19 CNS)?
A: The TGI was 32.1 µM.

Q: And the TGI (M19-MEL melanoma)?
A: The TGI was 31.7 µM.

Q: And the TGI (MOLT-4 leukemia)?
A: The TGI was 15.4 µM.

Q: And the TGI (EKVX NSCLC)?
A: Its TGI is 50.5 µM.

Q: What about the TGI (M14 melanoma) of the same compound?
A: Its TGI is 34.9 µM.

Q: What about the TGI (A549 NSCLC) of the same compound?
A: Its TGI is 42 µM.

Q: What about the TGI (HOP-18 NSCLC) of the same compound?
A: The TGI was 55.6 µM.

Q: And the TGI (RXF-631 renal)?
A: The TGI was 44.4 µM.

Q: And the TGI (OVCAR-4 ovarian)?
A: Its TGI is 47.5 µM.

Q: And the TGI (SNB-75 CNS)?
A: The TGI was 33.4 µM.

Q: And the TGI (UO-31 renal)?
A: Its TGI is 31.3 µM.

Q: And the TGI (HL-60(TB) leukemia)?
A: The TGI was 35.3 µM.

Q: What about the TGI (SK-MEL-28 melanoma) of the same compound?
A: The TGI was 34.5 µM.

Q: What about the TGI (DMS 273 small cell lung) of the same compound?
A: Its TGI is 30.4 µM.

Q: And the TGI (NCI-H460 lung)?
A: The TGI was 34.8 µM.

Q: And the TGI (OVCAR-3 ovarian)?
A: The TGI was 28.4 µM.

Q: What about the TGI (SNB-78 CNS) of the same compound?
A: Its TGI is 75.5 µM.

Q: And the TGI (786-0 renal)?
A: Its TGI is 41.5 µM.

Q: What about the TGI (UACC-257 melanoma) of the same compound?
A: Its TGI is 32 µM.

Q: What about the TGI (CCRF-CEM leukemia) of the same compound?
A: Its TGI is 28.9 µM.

Q: What about the TGI (COLO 205 colon) of the same compound?
A: The TGI was 32.5 µM.

Q: And the TGI (NCI-H23 lung)?
A: Its TGI is 38.2 µM.

Q: And the TGI (HT29 colon)?
A: The TGI was 29.8 µM.

Q: And the TGI (SK-MEL-5 melanoma)?
A: Its TGI is 28.5 µM.

Q: What about the TGI (CAKI-1 renal) of the same compound?
A: The TGI was 35.2 µM.

Q: What about the TGI (OVCAR-5 ovarian) of the same compound?
A: Its TGI is 30.2 µM.

Q: What about the TGI (SK-OV-3 ovarian) of the same compound?
A: The TGI was 53.9 µM.

Q: What about the TGI (ACHN renal) of the same compound?
A: The TGI was 38.3 µM.

Q: And the TGI (K-562 leukemia)?
A: Its TGI is 48.6 µM.

Q: And the TGI (TK-10 renal)?
A: Its TGI is 46.3 µM.

Q: And the TGI (SW-620 colon)?
A: Its TGI is 34.5 µM.

Q: What about the TGI (DLD-1 colon) of the same compound?
A: The TGI was 34.9 µM.

Q: And the TGI (HCT-116 colon)?
A: Its TGI is 30.3 µM.

Q: What about the TGI (KM20L2 colon) of the same compound?
A: Its TGI is 29.5 µM.

Q: And the TGI (U251 CNS)?
A: Its TGI is 29 µM.

Q: And the TGI (UACC-62 melanoma)?
A: The TGI was 31 µM.

Q: And the TGI (IGROV1 ovarian)?
A: Its TGI is 44.2 µM.

Q: What about the TGI (MALME-3M melanoma) of the same compound?
A: The TGI was 40.6 µM.

Q: What about the TGI (SN12C renal) of the same compound?
A: The TGI was 38.4 µM.

Q: What about the TGI (RPMI-8226 leukemia) of the same compound?
A: The TGI was 27.7 µM.

Q: What about the TGI (HCT-15 colon) of the same compound?
A: The TGI was 55.6 µM.

Q: For `c1ccc(SC(CCCCC(Sc2ccccc2)Sc2ccccc2)Sc2ccccc2)cc1`, which TGI (XF 498 CNS) is on record?
A: Its TGI is greater than 100 µM.

Q: What about the TGI (HOP-62 NSCLC) of the same compound?
A: Its TGI is greater than 100 µM.

Q: What about the TGI (RXF 393 renal) of the same compound?
A: Its TGI is greater than 100 µM.

Q: What about the TGI (LOX IMVI melanoma) of the same compound?
A: Its TGI is greater than 100 µM.

Q: And the TGI (HOP-92 NSCLC)?
A: Its TGI is greater than 100 µM.

Q: And the TGI (SF-295 CNS)?
A: Its TGI is greater than 100 µM.

Q: And the TGI (OVCAR-8 ovarian)?
A: Its TGI is greater than 100 µM.

Q: And the TGI (SNB-19 CNS)?
A: The TGI was greater than 100 µM.

Q: And the TGI (M19-MEL melanoma)?
A: Its TGI is greater than 100 µM.

Q: What about the TGI (MOLT-4 leukemia) of the same compound?
A: The TGI was greater than 100 µM.

Q: And the TGI (EKVX NSCLC)?
A: Its TGI is greater than 100 µM.

Q: What about the TGI (M14 melanoma) of the same compound?
A: Its TGI is greater than 100 µM.

Q: And the TGI (SF-539 CNS)?
A: Its TGI is greater than 100 µM.

Q: What about the TGI (A549 NSCLC) of the same compound?
A: The TGI was greater than 100 µM.

Q: What about the TGI (RXF-631 renal) of the same compound?
A: The TGI was greater than 100 µM.

Q: And the TGI (OVCAR-4 ovarian)?
A: The TGI was greater than 100 µM.

Q: And the TGI (SNB-75 CNS)?
A: Its TGI is greater than 100 µM.

Q: And the TGI (UO-31 renal)?
A: The TGI was greater than 100 µM.

Q: What about the TGI (HL-60(TB) leukemia) of the same compound?
A: Its TGI is greater than 100 µM.

Q: What about the TGI (SK-MEL-28 melanoma) of the same compound?
A: The TGI was greater than 100 µM.

Q: What about the TGI (DMS 273 small cell lung) of the same compound?
A: The TGI was greater than 100 µM.

Q: What about the TGI (NCI-H460 lung) of the same compound?
A: Its TGI is greater than 100 µM.

Q: What about the TGI (LXFL 529 NSCLC) of the same compound?
A: Its TGI is greater than 100 µM.

Q: What about the TGI (OVCAR-3 ovarian) of the same compound?
A: Its TGI is greater than 100 µM.

Q: What about the TGI (SNB-78 CNS) of the same compound?
A: The TGI was greater than 100 µM.

Q: And the TGI (786-0 renal)?
A: Its TGI is greater than 100 µM.

Q: What about the TGI (UACC-257 melanoma) of the same compound?
A: The TGI was greater than 100 µM.

Q: And the TGI (CCRF-CEM leukemia)?
A: Its TGI is greater than 100 µM.

Q: And the TGI (COLO 205 colon)?
A: Its TGI is greater than 100 µM.

Q: What about the TGI (NCI-H23 lung) of the same compound?
A: Its TGI is greater than 100 µM.

Q: What about the TGI (SR leukemia) of the same compound?
A: Its TGI is greater than 100 µM.

Q: What about the TGI (DMS 114 small cell lung) of the same compound?
A: Its TGI is greater than 100 µM.

Q: What about the TGI (SK-MEL-5 melanoma) of the same compound?
A: The TGI was greater than 100 µM.

Q: And the TGI (CAKI-1 renal)?
A: Its TGI is greater than 100 µM.

Q: What about the TGI (HCC-2998 colon) of the same compound?
A: The TGI was greater than 100 µM.

Q: And the TGI (SK-OV-3 ovarian)?
A: The TGI was greater than 100 µM.

Q: What about the TGI (ACHN renal) of the same compound?
A: Its TGI is greater than 100 µM.

Q: And the TGI (A498 renal)?
A: The TGI was greater than 100 µM.

Q: What about the TGI (K-562 leukemia) of the same compound?
A: Its TGI is greater than 100 µM.

Q: What about the TGI (KM12 colon) of the same compound?
A: Its TGI is greater than 100 µM.

Q: And the TGI (TK-10 renal)?
A: Its TGI is greater than 100 µM.

Q: And the TGI (SW-620 colon)?
A: Its TGI is greater than 100 µM.

Q: What about the TGI (DLD-1 colon) of the same compound?
A: Its TGI is greater than 100 µM.

Q: And the TGI (HCT-116 colon)?
A: Its TGI is greater than 100 µM.

Q: And the TGI (KM20L2 colon)?
A: Its TGI is greater than 100 µM.

Q: What about the TGI (U251 CNS) of the same compound?
A: Its TGI is greater than 100 µM.

Q: What about the TGI (SF-268 CNS) of the same compound?
A: Its TGI is greater than 100 µM.

Q: And the TGI (UACC-62 melanoma)?
A: The TGI was greater than 100 µM.

Q: And the TGI (SK-MEL-2 melanoma)?
A: Its TGI is greater than 100 µM.

Q: And the TGI (SN12C renal)?
A: The TGI was greater than 100 µM.

Q: What about the TGI (RPMI-8226 leukemia) of the same compound?
A: Its TGI is greater than 100 µM.

Q: And the TGI (HCT-15 colon)?
A: The TGI was greater than 100 µM.
